Data as given in ChEMBL document CHEMBL3991601, “The target landscape of clinical kinase drugs” (Science, 2017).
Active and inactive are the calls of the source. No stated cut-off is given here; in the data, actives have a measured Kd and inactives only a lower limit.

Columns and labels:
[1] = target: T1, Serine/threonine-protein kinase TAO3 (Homo sapiens, UniProt Q9H2K8)
T1 sequence (Q9H2K8 whole entry): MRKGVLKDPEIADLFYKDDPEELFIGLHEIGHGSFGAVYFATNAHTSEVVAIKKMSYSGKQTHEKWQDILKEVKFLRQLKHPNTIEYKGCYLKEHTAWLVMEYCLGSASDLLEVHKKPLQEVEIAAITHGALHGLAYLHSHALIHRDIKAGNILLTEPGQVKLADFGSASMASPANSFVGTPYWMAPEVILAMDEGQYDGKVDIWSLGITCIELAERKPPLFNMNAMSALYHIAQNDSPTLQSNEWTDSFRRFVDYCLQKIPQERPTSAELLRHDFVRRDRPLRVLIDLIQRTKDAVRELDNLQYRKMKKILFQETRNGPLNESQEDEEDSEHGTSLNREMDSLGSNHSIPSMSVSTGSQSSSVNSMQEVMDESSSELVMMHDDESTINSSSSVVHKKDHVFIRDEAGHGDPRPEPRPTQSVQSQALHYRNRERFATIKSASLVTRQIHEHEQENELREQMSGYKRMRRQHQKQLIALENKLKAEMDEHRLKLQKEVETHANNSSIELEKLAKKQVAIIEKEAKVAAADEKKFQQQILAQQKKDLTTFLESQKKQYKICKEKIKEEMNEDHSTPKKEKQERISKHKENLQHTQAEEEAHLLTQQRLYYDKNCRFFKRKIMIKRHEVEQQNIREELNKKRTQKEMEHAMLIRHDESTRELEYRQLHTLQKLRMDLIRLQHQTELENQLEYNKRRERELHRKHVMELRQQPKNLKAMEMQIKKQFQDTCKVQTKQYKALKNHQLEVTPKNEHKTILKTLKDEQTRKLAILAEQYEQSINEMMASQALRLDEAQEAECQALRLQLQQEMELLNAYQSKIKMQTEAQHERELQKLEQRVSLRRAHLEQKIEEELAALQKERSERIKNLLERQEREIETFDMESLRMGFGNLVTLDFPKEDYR

[2] = target: T2, Serine/threonine-protein kinase PLK4 (Homo sapiens, UniProt O00444)
T2 sequence (O00444 whole entry): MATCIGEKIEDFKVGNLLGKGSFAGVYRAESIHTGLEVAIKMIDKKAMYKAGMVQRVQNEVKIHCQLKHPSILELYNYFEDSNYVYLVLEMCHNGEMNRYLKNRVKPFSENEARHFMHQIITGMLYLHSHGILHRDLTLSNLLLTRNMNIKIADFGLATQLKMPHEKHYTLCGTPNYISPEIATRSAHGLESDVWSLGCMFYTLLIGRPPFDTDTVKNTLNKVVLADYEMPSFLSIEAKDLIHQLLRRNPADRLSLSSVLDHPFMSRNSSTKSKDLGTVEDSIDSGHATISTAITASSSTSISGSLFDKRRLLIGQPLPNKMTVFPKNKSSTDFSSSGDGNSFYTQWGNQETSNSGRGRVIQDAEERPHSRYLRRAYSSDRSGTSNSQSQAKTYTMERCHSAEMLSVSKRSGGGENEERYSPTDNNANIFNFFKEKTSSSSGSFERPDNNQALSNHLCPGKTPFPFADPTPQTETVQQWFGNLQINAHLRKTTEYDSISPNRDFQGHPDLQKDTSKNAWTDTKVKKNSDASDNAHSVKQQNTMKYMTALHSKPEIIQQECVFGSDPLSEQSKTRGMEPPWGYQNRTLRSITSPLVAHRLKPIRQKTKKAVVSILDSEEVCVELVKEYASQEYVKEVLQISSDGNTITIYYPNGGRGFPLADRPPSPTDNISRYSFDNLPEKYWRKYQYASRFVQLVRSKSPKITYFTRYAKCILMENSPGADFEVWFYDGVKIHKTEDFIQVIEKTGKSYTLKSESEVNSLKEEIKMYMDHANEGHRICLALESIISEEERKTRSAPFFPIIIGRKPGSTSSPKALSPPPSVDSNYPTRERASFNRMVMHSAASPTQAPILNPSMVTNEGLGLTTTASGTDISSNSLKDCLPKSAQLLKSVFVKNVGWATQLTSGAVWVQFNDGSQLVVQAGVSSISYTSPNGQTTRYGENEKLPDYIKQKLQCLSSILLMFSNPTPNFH

[3] = target: T3, General transcription and DNA repair factor IIH helicase subunit XPD (Homo sapiens, UniProt P18074); conditions: read-out: Kd apparent; k-562, colo 205, sk-n-be(2) and mv-4-11
T3 sequence (P18074 whole entry): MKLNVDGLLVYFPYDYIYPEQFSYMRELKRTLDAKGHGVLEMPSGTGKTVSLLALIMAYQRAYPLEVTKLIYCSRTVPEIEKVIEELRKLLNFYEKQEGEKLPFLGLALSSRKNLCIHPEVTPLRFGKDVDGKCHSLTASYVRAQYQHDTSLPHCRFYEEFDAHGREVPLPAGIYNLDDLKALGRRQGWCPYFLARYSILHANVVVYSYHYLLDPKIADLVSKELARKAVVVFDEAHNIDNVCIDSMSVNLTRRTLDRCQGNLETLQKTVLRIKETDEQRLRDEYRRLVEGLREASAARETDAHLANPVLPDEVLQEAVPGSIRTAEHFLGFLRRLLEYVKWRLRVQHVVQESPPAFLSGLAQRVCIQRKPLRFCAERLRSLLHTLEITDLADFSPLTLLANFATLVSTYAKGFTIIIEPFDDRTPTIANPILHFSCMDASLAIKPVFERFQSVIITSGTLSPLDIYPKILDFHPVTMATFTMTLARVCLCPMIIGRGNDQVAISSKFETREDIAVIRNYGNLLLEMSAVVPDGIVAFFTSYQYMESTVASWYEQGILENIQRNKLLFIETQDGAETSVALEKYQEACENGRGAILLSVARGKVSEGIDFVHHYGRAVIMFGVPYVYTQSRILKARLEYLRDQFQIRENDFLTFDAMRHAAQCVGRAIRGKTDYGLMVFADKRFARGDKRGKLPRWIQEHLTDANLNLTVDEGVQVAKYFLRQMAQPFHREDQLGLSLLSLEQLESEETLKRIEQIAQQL

[4] = target: Calcium/calmodulin-dependent protein kinase type II subunit delta (Homo sapiens, UniProt Q13557)
Sequence of Calcium/calmodulin-dependent protein kinase type II subunit delta (Q13557 whole entry): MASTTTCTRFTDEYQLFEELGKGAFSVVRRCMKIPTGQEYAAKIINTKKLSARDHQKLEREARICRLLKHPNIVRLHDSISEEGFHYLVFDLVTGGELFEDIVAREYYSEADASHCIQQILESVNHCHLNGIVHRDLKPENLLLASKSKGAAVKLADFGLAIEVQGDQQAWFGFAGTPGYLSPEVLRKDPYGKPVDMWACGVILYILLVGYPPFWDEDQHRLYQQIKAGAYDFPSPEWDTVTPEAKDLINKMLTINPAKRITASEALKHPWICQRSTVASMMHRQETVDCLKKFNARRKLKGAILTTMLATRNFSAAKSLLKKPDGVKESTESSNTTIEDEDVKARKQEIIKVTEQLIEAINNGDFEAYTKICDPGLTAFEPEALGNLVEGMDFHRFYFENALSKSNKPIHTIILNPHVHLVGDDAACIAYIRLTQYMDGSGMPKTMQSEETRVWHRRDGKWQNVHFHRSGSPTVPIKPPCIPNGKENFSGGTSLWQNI

[5] = target: Mitogen-activated protein kinase kinase kinase 1 (Homo sapiens, UniProt Q13233)
Sequence of Mitogen-activated protein kinase kinase kinase 1 (Q13233 whole entry): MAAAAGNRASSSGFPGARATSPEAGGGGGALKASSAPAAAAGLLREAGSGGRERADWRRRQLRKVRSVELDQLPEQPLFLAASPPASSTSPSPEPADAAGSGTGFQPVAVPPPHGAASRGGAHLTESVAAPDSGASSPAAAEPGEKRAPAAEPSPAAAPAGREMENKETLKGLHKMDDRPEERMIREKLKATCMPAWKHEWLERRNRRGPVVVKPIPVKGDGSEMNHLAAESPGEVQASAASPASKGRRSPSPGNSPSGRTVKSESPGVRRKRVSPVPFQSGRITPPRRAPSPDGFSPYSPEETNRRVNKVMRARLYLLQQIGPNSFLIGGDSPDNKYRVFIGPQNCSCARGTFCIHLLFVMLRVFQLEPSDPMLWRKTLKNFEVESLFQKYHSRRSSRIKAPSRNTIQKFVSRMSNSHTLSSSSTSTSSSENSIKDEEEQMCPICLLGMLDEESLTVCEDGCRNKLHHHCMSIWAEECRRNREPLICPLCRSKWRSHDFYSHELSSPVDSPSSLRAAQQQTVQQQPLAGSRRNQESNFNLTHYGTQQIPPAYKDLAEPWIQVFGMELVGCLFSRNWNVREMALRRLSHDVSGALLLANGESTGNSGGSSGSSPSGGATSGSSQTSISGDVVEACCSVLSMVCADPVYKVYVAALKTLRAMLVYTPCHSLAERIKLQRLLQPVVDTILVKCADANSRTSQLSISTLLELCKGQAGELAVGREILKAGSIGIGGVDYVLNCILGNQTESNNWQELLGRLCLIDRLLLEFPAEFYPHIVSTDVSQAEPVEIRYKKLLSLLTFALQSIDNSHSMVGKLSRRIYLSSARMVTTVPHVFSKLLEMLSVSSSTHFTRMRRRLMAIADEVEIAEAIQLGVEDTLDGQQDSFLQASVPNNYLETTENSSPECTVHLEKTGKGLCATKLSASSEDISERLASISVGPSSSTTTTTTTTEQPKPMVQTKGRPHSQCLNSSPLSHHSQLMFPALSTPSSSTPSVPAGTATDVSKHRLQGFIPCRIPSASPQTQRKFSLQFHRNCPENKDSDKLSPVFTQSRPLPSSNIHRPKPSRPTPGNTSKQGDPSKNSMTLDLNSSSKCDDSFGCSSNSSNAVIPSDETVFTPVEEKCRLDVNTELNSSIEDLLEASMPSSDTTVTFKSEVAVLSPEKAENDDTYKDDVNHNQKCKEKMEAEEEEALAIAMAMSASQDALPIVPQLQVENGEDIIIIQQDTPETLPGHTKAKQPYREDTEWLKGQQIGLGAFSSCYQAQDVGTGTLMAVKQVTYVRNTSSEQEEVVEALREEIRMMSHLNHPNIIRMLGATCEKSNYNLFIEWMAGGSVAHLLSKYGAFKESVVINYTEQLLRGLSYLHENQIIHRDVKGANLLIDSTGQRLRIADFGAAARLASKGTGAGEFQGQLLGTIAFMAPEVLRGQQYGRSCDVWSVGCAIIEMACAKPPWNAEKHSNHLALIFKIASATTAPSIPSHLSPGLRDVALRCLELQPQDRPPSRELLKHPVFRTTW

| Kd [1] | Kd [2] | Kd [3] | Kd [4] | Kd [5] | Compound |
| --- | --- | --- | --- | --- | --- |
| > 30 µM (inactive) | > 30 µM (inactive) | > 30 µM (inactive) | > 30 µM (inactive) | > 30 µM (inactive) | O=C(Nc1ccc(OC(F)(F)F)cc1)c1sccc1NCc1ccnc2ccccc12 [OSI-930] |
| > 30 µM (inactive) | 0.308 µM (active) | > 30 µM (inactive) | > 30 µM (inactive) | > 30 µM (inactive) | Cc1cc(Nc2nc(N[C@@H](C)c3ncc(F)cn3)ncc2Cl)n[nH]1 [AZD-1480] |
| > 30 µM (inactive) | > 30 µM (inactive) | – | > 30 µM (inactive) | > 30 µM (inactive) | CC(C)(O)CC(=O)NCCn1ccc2ncnc(Nc3ccc(Oc4cccc(C(F)(F)F)c4)c(Cl)c3)c21 [TAK-285] |
| > 30 µM (inactive) | > 30 µM (inactive) | – | 0.703 µM (active) | > 30 µM (inactive) | COc1cccc(Nc2ncnn3ccc(CN4CC[C@@H](N)[C@H](O)C4)c23)c1 [BMS-690514] |
| – | – | > 30 µM (inactive) | – | – | C[C@@]1(C(=O)Nc2ccc(F)nc2)CCCN1c1nc(Nc2cc(C3CC3)n[nH]2)c2cccn2n1 [BMS-754807] |
| > 30 µM (inactive) | 0.301 µM | – | > 30 µM (inactive) | > 30 µM (inactive) | CCOc1ccn(-c2ccc(F)cc2)c(=O)c1C(=O)Nc1ccc(Oc2ccnc(N)c2Cl)c(F)c1 [BMS-777607] |

More lines, now with the values behind:

| Compound | Kd [1] | Kd [2] | Kd [3] | Kd [4] | Kd [5] |
| --- | --- | --- | --- | --- | --- |
| CCN(CCCOc1ccc2c(Nc3cc(CC(=O)Nc4cccc(F)c4)n[nH]3)ncnc2c1)CCOP(=O)(O)O [BARASERTIB] | > 30 µM (inactive) | > 30 µM (inactive) | > 30 µM (inactive) | > 30 µM (inactive) | > 30 µM (inactive) |
| O=C(NC[C@H](O)CO)c1ccncc1Nc1ccc(I)cc1F [PIMASERTIB] | > 30 µM (inactive) | > 30 µM (inactive) | > 30 µM (inactive) | > 30 µM (inactive) | > 30 µM (inactive) |
| O=C(NOC[C@H](O)CO)c1ccc(F)c(F)c1Nc1ccc(I)cc1F [MIRDAMETINIB] | > 30 µM (inactive) | > 30 µM (inactive) | > 30 µM (inactive) | > 30 µM (inactive) | > 30 µM (inactive) |
| COc1cc(Nc2ncc(F)c(Nc3ccc4c(n3)N(COP(=O)(O)O)C(=O)C(C)(C)O4)n2)cc(OC)c1OC [FOSTAMATINIB] | > 30 µM (inactive) | 0.57 µM (active) | > 30 µM (inactive) | > 30 µM (inactive) | > 30 µM (inactive) |
| CNC(=O)c1cc(COc2nnc(Nc3ccc(Cl)cc3)c3ccoc23)ccn1 [TELATINIB] | > 30 µM (inactive) | > 30 µM (inactive) | > 30 µM (inactive) | > 30 µM (inactive) | > 30 µM (inactive) |
| COc1ccc(-c2ccc3ncc4c(c3c2)n(-c2ccc(N3CCNCC3)c(C(F)(F)F)c2)c(=O)n4C)cn1 [BGT-226 FREE BASE] | > 30 µM (inactive) | > 30 µM (inactive) | > 30 µM (inactive) | > 30 µM (inactive) | > 30 µM (inactive) |
| COc1cc2c(N3CCN(C(=O)Nc4ccc(OC(C)C)cc4)CC3)ncnc2cc1OCCCN1CCCCC1 [TANDUTINIB] | – | – | > 30 µM (inactive) | – | – |
| FC(F)(F)c1ccc(CNc2ccc(Cc3c[nH]c4ncc(Cl)cc34)cn2)cn1 [PEXIDARTINIB] | > 30 µM (inactive) | > 30 µM (inactive) | – | > 30 µM (inactive) | > 30 µM (inactive) |
| S=C(NCc1ccc2c(c1)OCO2)N1CCN(c2ncnc3c2oc2ccccc23)CC1 [AMUVATINIB] | > 30 µM (inactive) | > 30 µM (inactive) | > 30 µM (inactive) | > 30 µM (inactive) | > 30 µM (inactive) |
| C=CC(=O)Nc1cccc(Nc2nc(Nc3ccc(N4CCN(C(C)=O)CC4)cc3OC)ncc2C(F)(F)F)c1 [ROCILETINIB] | > 30 µM (inactive) | > 30 µM (inactive) | > 30 µM (inactive) | > 30 µM (inactive) | > 30 µM (inactive) |
| N#CCNC(=O)c1ccc(-c2ccnc(Nc3ccc(N4CCOCC4)cc3)n2)cc1 [MOMELOTINIB] | – | – | – | – | > 30 µM (inactive) |
| O=S(=O)(c1cccc2c(O)nccc12)N1CCCNCC1 [HYDROXYFASUDIL] | > 30 µM (inactive) | > 30 µM (inactive) | > 30 µM (inactive) | > 30 µM (inactive) | > 30 µM (inactive) |
| CC(C)CC(=O)Nc1[nH]nc2c1CN(C(=O)C1CCN(C)CC1)C2(C)C [PHA-793887] | – | > 30 µM (inactive) | 0.01 µM (active) | > 30 µM (inactive) | > 30 µM (inactive) |
| CC[C@@](C)(Nc1ccnc(-c2c[nH]c3ncccc23)n1)C(=O)NCC(F)(F)F [DECERNOTINIB] | 7.87 µM (active) | – | > 30 µM (inactive) | 20.3 µM (active) | > 30 µM (inactive) |
| CC1(C)CNc2cc(NC(=O)c3cccnc3NCc3ccncc3)ccc21 [MOTESANIB] | – | – | > 30 µM (inactive) | – | – |
| Cn1cnc2c(F)c(Nc3ccc(Br)cc3Cl)c(C(=O)NOCCO)cc21 [SELUMETINIB] | – | – | > 30 µM (inactive) | – | – |
| C[C@]1(O)C[C@@H](c2nc(-c3ccc4ccc(-c5ccccc5)nc4c3)c3c(N)nccn32)C1 [LINSITINIB] | > 30 µM (inactive) | – | > 30 µM (inactive) | – | > 30 µM (inactive) |
| O=S(=O)(c1cccc2cnccc12)N1CCCNCC1 [FASUDIL] | > 30 µM (inactive) | – | > 30 µM (inactive) | > 30 µM (inactive) | > 30 µM (inactive) |
| CN(c1ncccc1CNc1nc(Nc2ccc3c(c2)CC(=O)N3)ncc1C(F)(F)F)S(C)(=O)=O [PF-00562271] | 11.9 µM (active) | – | 2.64 µM (active) | – | > 30 µM (inactive) |
| Cn1cc(-c2[nH]c3cc(NC(=O)[C@H](N)C4CCCCC4)cc4c3c2C=NNC4=O)cn1 | > 30 µM (inactive) | – | > 30 µM (inactive) | > 30 µM (inactive) | – |
| C=CC(=O)Nc1cc(Nc2nccc(-c3cn(C)c4ccccc34)n2)c(OC)cc1N(C)CCN(C)C [OSIMERTINIB] | > 30 µM (inactive) | > 30 µM (inactive) | – | > 30 µM (inactive) | > 30 µM (inactive) |
| CN(C)C/C=C/C(=O)Nc1cc2c(Nc3ccc(F)c(Cl)c3)ncnc2cc1O[C@H]1CCOC1 [AFATINIB] | – | – | > 30 µM (inactive) | – | – |
